Measurements reported in patent US8444858B2, “Control of development of biofilms in industrial process water” (A.Y. Laboratories Ltd., priority 2001, dated 2013).
Where two headings read alike, the source gives them in different places.

Legend:
[1] = system: biofilm; assay: Pilot plant wastewater pipes, difference in Hazen-Williams coefficient treated vs control pipe; conditions: for HW Diff. treated pipe - Control: single 3 h treatment on day 1 at 10 ppm as total chlorine
Method: Treated wastewater was pumped through several pipes of 10 m length and 4 inches inner diameter in a pilot plant. […] Pressure drop through each pipe was monitored on-line, and average HW coefficients were calculated.
The biofilm inhibiting substance in this example was produced as follows, using a small feeding system was built specifically for this trial. […] The concentration of the biofilm inhibiting substance pre-injection solution was ˜3600 ppm and the pH was 9.2-9.6. […]

[2] = system: catalase (Merck); assay: Inactivation of catalase, residual H2O2 laboratory test; assay type: biochemical
Method: Freshly prepared biofilm inhibiting substance was added to the appropriate flasks containing diluted catalase at a pre-defined feed rate. The contents of the containers were mixed for 60 minutes at room temperature prior to addition of H2O2 (to a final H2O2 concentration of 3.5 g/l). After addition of the H2O2, the mixture was allowed to mix for 30 minutes at room temperature, at which point H2O2 residues were measured in each flask in accordance with the Dr. Lange Cuvette Test LCW 058, measured with LASA 20 (based on Jander/Blasius: Lehrbach der Analytischen and Praparative Anorganischen Chemie, as described in the Handbook of Photometrical Operation Analysis (October 1997)).
Sodium hypochlorite was diluted in DI water to a final concentration of 6000 ppm expressed as total chlorine. Ammonium bromide solution (equimolar to 1.1 mole of the diluted sodium hypochlorite solution, 10% excess on a molar basis) and ammonium chloride solution (equimolar to 1.1 mole of the diluted hypochlorite solution, 10% excess on a molar basis) were prepared. The diluted hypochlorite (50 ml) was added dropwise to 50 ml of the appropriate ammonium salt while the pH was constantly measured. The biofilm inhibiting substance concentration in the produced stock solution was immediately measured and the biofilm inhibiting substance at the appropriate feed level was immediately added to the test flasks.

[3] = system: H2O2-degrading enzymes
Method: (§1) The reaction pH was Maintained at 9.8-10.0. The Production process was controlled to ensure synchronous metering of the two chemicals, continuous mixing at the predetermined molar ratio and reproducible production of a stable biofilm inhibiting substance stock solution for the duration of the trial and longer. […] After 850 minutes the dosing rate was reduced to 85 g/ton expressed as total Cl2 by feeding the biofilm inhibiting substance semi-continuously. Various parameters were monitored during start-up of the trial: Residual biofilm inhibiting substance was measured (using a Hach pocket colorimeter, total Cl2, based on the DPD method adapted from Standard Methods for Examination of Waste and Waste Water). Residual hydrogen peroxide was measured using either LASA 20 with the LCW 085 method, based on the method of Jander/Blasius, Lehrbuch der Analytischen and Praparative Anorganischen Chemie, as described in the Handbook of Photometrical Operation Analysis by Dr. Lange for the LASA 20, October 1997 (in cases of high concentration), or Merck Test Strips (0.5-25 ppm). When necessary, samples were diluted with DI water.
(§2) The activity of H2O2-degrading enzymes in the process water was measured according to the following procedure: a commercial solution of H2O2 was diluted with DI water to a final concentration of 100 g/l water (10%). One ml of the diluted H2O2 solution was added to 9 ml of a sample taken from the treated de-inking process water to form a final feed rate of 10 g/l H2O2. The combined sample was incubated at room temperature for 15 minutes, at which time residual H2O2 was measured. Hydrogen peroxide diluted in DI water served as a control. […] Adenosine triphosphate (ATP) measurements in Table 6 are based on the following process: during the change from ATP to Adenosine monophosphate (AMP) in the presence of luciferin and luciferase, a defined quantity of light is emitted per ATP molecule. This emitted light is measured by a photometer. The results are given in relative terms and are thus relative and not absolute (RLU=relative light unit). The values can be correlated with microbial activity in the sense that for high viable counts, a high ATP measurement is obtained, and vice versa.

[4] = system: planktonic microorganisms
Method: as §1, §2

[5] = time 100 min, continuous feed 170 g/ton as total Cl2
[6] = time 240 min, continuous feed 170 g/ton as total Cl2
[7] = time 850 min, continuous feed 170 g/ton as total Cl2
[8] = time 1500 min, semi-continuous feed 85 g/ton as total Cl2 since 850 min

Q: How did the “HW Diff. treated pipe - Control” value ([1]; day 1) turn out when “bromide activated chloramine [Fuzzicide BAC]” was run?
A: Its value is 14.3.

Q: What about the “HW Difference, Fuzzicide BAC - Control” value ([1]; day 1 of trial (treatment day), 10 ppm as total chlorine for 3 h three times a week) of the same substance?
A: The value was 10.12.

Q: What about the “HW Diff. treated pipe - Control” value ([1]; day 2) of the same substance?
A: The value was 13.7.

Q: What about the “HW Difference, Fuzzicide BAC - Control” value ([1]; day 2 of trial, 10 ppm as total chlorine for 3 h three times a week) of the same substance?
A: Its value is 11.25.

Q: And the “HW Diff. treated pipe - Control” value ([1]; day 3)?
A: The value was 12.8.

Q: And the “HW Difference, Fuzzicide BAC - Control” value ([1]; day 3 of trial, 10 ppm as total chlorine for 3 h three times a week)?
A: The value was 11.62.

Q: What about the “HW Diff. treated pipe - Control” value ([1]; day 4) of the same substance?
A: The value was 16.5.

Q: And the “HW Difference, Fuzzicide BAC - Control” value ([1]; day 4 of trial, 10 ppm as total chlorine for 3 h three times a week)?
A: The value was 13.04.

Q: And the “HW Diff. treated pipe - Control” value ([1]; day 5)?
A: The value was 16.0.

Q: What about the “HW Difference, Fuzzicide BAC - Control” value ([1]; day 5 of trial (treatment day), 10 ppm as total chlorine for 3 h three times a week) of the same substance?
A: The value was 12.35.

Q: And the “HW Diff. treated pipe - Control” value ([1]; day 6)?
A: The value was 16.55.

Q: And the “HW Difference, Fuzzicide BAC - Control” value ([1]; day 6 of trial, 10 ppm as total chlorine for 3 h three times a week)?
A: The value was 13.76.

Q: And the “HW Diff. treated pipe - Control” value ([1]; day 7)?
A: Its value is 15.8.

Q: What about the “HW Difference, Fuzzicide BAC - Control” value ([1]; day 7 of trial, 10 ppm as total chlorine for 3 h three times a week) of the same substance?
A: Its value is 15.13.

Q: And the “HW Diff. treated pipe - Control” value ([1]; day 8)?
A: Its value is 14.3.

Q: And the “HW Diff. treated pipe - Control” value ([1]; day 9)?
A: Its value is 16.9.

Q: And the “HW Diff. treated pipe - Control” value ([1]; day 10)?
A: Its value is 15.3.

Q: What about the “HW Diff. treated pipe - Control” value ([1]; day 11) of the same substance?
A: Its value is 16.0.

Q: And the “HW Diff. treated pipe - Control” value ([1]; day 12)?
A: The value was 18.1.

Q: What about the “HW Diff. treated pipe - Control” value ([1]; day 13) of the same substance?
A: Its value is 17.2.

Q: What about the “HW Diff. treated pipe - Control” value ([1]; day 14) of the same substance?
A: Its value is 15.0.

Q: What about the “HW Diff. treated pipe - Control” value ([1]; day 15) of the same substance?
A: Its value is 11.9.

Q: What about the “HW Diff. treated pipe - Control” value ([1]; day 16) of the same substance?
A: The value was 9.1.

Q: What about the “HW Diff. treated pipe - Control” value ([1]; day 17) of the same substance?
A: The value was 7.3.

Q: And the “HW Diff. treated pipe - Control” value ([1]; day 18)?
A: Its value is 7.2.

Q: And the “HW Difference, Fuzzicide BAC - Control” value ([1]; day 26 of trial, between days 7 and 26 the biocide was improperly prepared, rendering it ineffective)?
A: Its value is 6.11.

Q: What about the “HW Difference, Fuzzicide BAC - Control” value ([1]; day 27 of trial (treatment day), 10 ppm as total chlorine for 3 h three times a week) of the same substance?
A: Its value is 6.67.

Q: And the “HW Difference, Fuzzicide BAC - Control” value ([1]; day 28 of trial, 10 ppm as total chlorine for 3 h three times a week)?
A: Its value is 7.13.

Q: And the “HW Difference, Fuzzicide BAC - Control” value ([1]; day 29 of trial (treatment day), 10 ppm as total chlorine for 3 h three times a week)?
A: Its value is 8.75.

Q: And the “HW Difference, Fuzzicide BAC - Control” value ([1]; day 30 of trial, 10 ppm as total chlorine for 3 h three times a week)?
A: The value was 8.93.

Q: What about the “HW Difference, Fuzzicide BAC - Control” value ([1]; day 31 of trial, 10 ppm as total chlorine for 3 h three times a week) of the same substance?
A: Its value is 8.93.

Q: What about the “HW Difference, Fuzzicide BAC - Control” value ([1]; day 32 of trial, 10 ppm as total chlorine for 3 h three times a week) of the same substance?
A: The value was 9.02.

Q: And the “HW Difference, Fuzzicide BAC - Control” value ([1]; day 33 of trial (treatment day), 10 ppm as total chlorine for 3 h three times a week)?
A: The value was 8.89.

Q: And the “HW Difference, Fuzzicide BAC - Control” value ([1]; day 34 of trial, 10 ppm as total chlorine for 3 h three times a week)?
A: Its value is 8.93.

Q: And the “HW Difference, Fuzzicide BAC - Control” value ([1]; day 35 of trial, 10 ppm as total chlorine for 3 h three times a week)?
A: Its value is 9.12.

Q: And the “HW Difference, Fuzzicide BAC - Control” value ([1]; day 36 of trial (treatment day), 10 ppm as total chlorine for 3 h three times a week)?
A: Its value is 10.31.

Q: What about the “HW Difference, Fuzzicide BAC - Control” value ([1]; day 37 of trial, 10 ppm as total chlorine for 3 h three times a week) of the same substance?
A: Its value is 9.96.

Q: What about the “HW Difference, Fuzzicide BAC - Control” value ([1]; day 38 of trial, 10 ppm as total chlorine for 3 h three times a week) of the same substance?
A: The value was 13.97.

Q: What about the “Residual H2O2 concentration, % of 3.5% g/l” value ([2]; BIS 8.1 ppm as total chlorine, catalase 26 units/ml, 60 min preincubation, 30 min after H2O2) of the same substance?
A: The value was 21.4 % of 3.5% g/l.

Q: What about the “Residual H2O2 concentration, % of 3.5% g/l” value ([2]; BIS 60 ppm as total chlorine, catalase 0 units/ml (no enzyme)) of the same substance?
A: The value was 100 % of 3.5% g/l.

Q: And the “Residual H2O2 concentration, % of 3.5% g/l” value ([2]; BIS 60 ppm as total chlorine, catalase 26 units/ml)?
A: Its value is 100 % of 3.5% g/l.

Q: What about the “Residual H2O2 concentration, % of 3.5% g/l” value ([2]; BIS 140 ppm as total chlorine, catalase 26 units/ml) of the same substance?
A: Its value is 100 % of 3.5% g/l.

Q: What about the “Reduction in Catalase Activity, as % of initial H2O2 concentration” value (from here on “Reduction in Catalase Activity, as %”) ([3]; time 0 min (start of dosing, baseline), 10 g/l H2O2 added to sample, 15 min) of the same substance?
A: The value was 37.6%.

Q: And the “Reduction in Catalase Activity, as %” value [3, 5]?
A: The value was 17.8%.

Q: And the “Reduction in Catalase Activity, as %” value [3, 6]?
A: The value was 54.7%.

Q: What about the “Reduction in Catalase Activity, as %” value [3, 7] of the same substance?
A: Its value is 92%.

Q: What about the “Reduction in Catalase Activity, as %” value [3, 8] of the same substance?
A: Its value is 135.1%.

Q: And the “ATP (RLU)” value ([4]; time 0 min (start of dosing, baseline))?
A: Its value is 132276 RLU.

Q: What about the “ATP (RLU)” value [4, 5] of the same substance?
A: Its value is 6340 RLU.

Q: And the “ATP (RLU)” value [4, 6]?
A: Its value is 2861 RLU.

Q: And the “ATP (RLU)” value [4, 7]?
A: The value was 535 RLU.

Q: What about the “ATP (RLU)” value [4, 8] of the same substance?
A: Its value is 3568 RLU.
